According to ChEMBL document CHEMBL1201862, “PubChem BioAssay data set” (2004):
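Method: 48-hour compound exposure of cells in 96-well plates, five concentrations, linear interpolation of endpoints. Abbreviation: GI50, concentration required for 50% inhibition of growth.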 Activity calls are given as the source filed them. No stated cut-off is given here; in the data, active = GI50 up to about 1.1 µM and inactive = higher.

Columns and labels:
Experiment in all cases: NCI-60 cell line screen, 48 h
NCI-H460 = system: NCI-H460
SK-OV-3 = system: SK-OV-3
SNB-75 = system: SNB-75
A498 = system: A498
RPMI-8226 = system: RPMI-8226
SF-539 = system: SF-539
UO-31 = system: UO-31
MDA-MB-435 = system: MDA-MB-435
K562 = system: K562
HOP-92 = system: HOP-92
OVCAR-3 = system: OVCAR-3
TK-10 = system: TK-10
SK-MEL-2 = system: SK-MEL-2
HOP-62 = system: HOP-62
Hs-578T = system: Hs-578T
PC-3 = system: PC-3
786-0 = system: 786-0
IGROV-1 = system: IGROV-1
KM12 = system: KM12
NCI-H226 = system: NCI-H226

SMILES | GI50 (NCI-H460) | GI50 (SK-OV-3) | GI50 (SNB-75) | GI50 (A498) | GI50 (RPMI-8226) | GI50 (SF-539) | GI50 (UO-31) | GI50 (MDA-MB-435) | GI50 (K562) | GI50 (HOP-92) | GI50 (OVCAR-3) | GI50 (TK-10) | GI50 (SK-MEL-2) | GI50 (HOP-62) | GI50 (Hs-578T) | GI50 (PC-3) | GI50 (786-0) | GI50 (IGROV-1) | GI50 (KM12) | GI50 (NCI-H226)
Cc1nc2nc3c(ncn3COCCO)c(O)n2c1C(c1ccccc1)(c1ccccc1)c1ccccc1 | 15.2 µM (inactive) | 15.9 µM (inactive) | 12.8 µM (inactive) | 18.3 µM (inactive) | 12 µM (inactive) | 6.25 µM (inactive) | 30.3 µM (inactive) | 10.9 µM (inactive) | 9.25 µM (inactive) | 16.7 µM (inactive) | 2.96 µM (inactive) | 16.6 µM (inactive) | 14.5 µM (inactive) | 18.6 µM (inactive) | 21.2 µM (inactive) | 12.9 µM (inactive) | 17.1 µM (inactive) | 14 µM (inactive) | 12.2 µM (inactive) | 
COc1ccccc1N1C(=O)CS(=O)(=O)C1c1cccc(Oc2ccccc2)c1 (configuration not stated) | 15.2 µM (inactive) | 23.8 µM (inactive) | 20 µM (inactive) | 18.9 µM (inactive) |  | 16 µM (inactive) | 19.9 µM (inactive) | 4.26 µM (inactive) | 4.06 µM (inactive) | 10.8 µM (inactive) | 18.7 µM (inactive) | 18.5 µM (inactive) | 13 µM (inactive) | 18.6 µM (inactive) | 19.1 µM (inactive) | 12.2 µM (inactive) | 18.3 µM (inactive) |  | 15.7 µM (inactive) | 14.6 µM (inactive)
CCCC(=O)N(C(=O)CCC)C1=C(Cl)C(=O)c2ccccc2C1=O | 5.22 µM (inactive) | 15.5 µM (inactive) | 3.18 µM (inactive) | 18.3 µM (inactive) |  | 3.62 µM (inactive) | 1.62 µM (inactive) | 4.63 µM (inactive) | 2.18 µM (inactive) | 4.01 µM (inactive) | 3.21 µM (inactive) | 4.1 µM (inactive) | 4.42 µM (inactive) | 11.9 µM (inactive) | 8.04 µM (inactive) | 4.06 µM (inactive) | 9.98 µM (inactive) | 5.66 µM (inactive) | 3.49 µM (inactive) | 8.38 µM (inactive)
Cc1ccc(/C=N/Nc2cc(C)c3ccccc3n2)s1 |  | 19.3 µM (inactive) | 31.6 µM (inactive) |  | 3.91 µM (inactive) | 21.3 µM (inactive) | > 100 µM (inactive) | 21.2 µM (inactive) | 7 µM (inactive) | 27.2 µM (inactive) | 2.65 µM (inactive) | 30.8 µM (inactive) | 34.1 µM (inactive) | 15.7 µM (inactive) | 31.5 µM (inactive) | 14 µM (inactive) | 18.7 µM (inactive) | 10.2 µM (inactive) | 16.4 µM (inactive) | 14 µM (inactive)
O=C1CC(C(CC(=O)c2ccccc2)c2ccccc2)C(=O)c2ccccc2N1 (configuration not stated) | 33.3 µM (inactive) | > 100 µM (inactive) | 30.8 µM (inactive) | > 100 µM (inactive) | 22.1 µM (inactive) | 38.3 µM (inactive) | 14.2 µM (inactive) | 50.1 µM (inactive) | 33.1 µM (inactive) |  | 28.4 µM (inactive) |  | 16 µM (inactive) | 51.1 µM (inactive) | 43.5 µM (inactive) | 25.5 µM (inactive) | > 100 µM (inactive) | > 100 µM (inactive) | 49.7 µM (inactive) | 24.4 µM (inactive)
CC(C)C(C(=O)O)N1C(=O)c2ccccc2C1=O (configuration not stated) | > 100 µM (inactive) | > 100 µM (inactive) | > 100 µM (inactive) | > 100 µM (inactive) | > 100 µM (inactive) |  |  | > 100 µM (inactive) | > 100 µM (inactive) | > 100 µM (inactive) | > 100 µM (inactive) | > 100 µM (inactive) | 0.18 µM (active) | > 100 µM (inactive) | > 100 µM (inactive) | > 100 µM (inactive) | > 100 µM (inactive) | > 100 µM (inactive) | > 100 µM (inactive) | > 100 µM (inactive)
CN(C)C(=C1c2cc([N+](=O)[O-])ccc2-c2ccc([N+](=O)[O-])cc21)N(C)C |  | > 100 µM (inactive) | > 100 µM (inactive) | > 100 µM (inactive) | 3.32 µM (inactive) |  | 56.2 µM (inactive) | > 100 µM (inactive) | > 100 µM (inactive) |  | > 100 µM (inactive) | > 100 µM (inactive) | > 100 µM (inactive) | > 100 µM (inactive) | > 100 µM (inactive) | > 100 µM (inactive) | > 100 µM (inactive) | > 100 µM (inactive) | > 100 µM (inactive) | > 100 µM (inactive)
